Results from patent US12090225B2 (Avalyn Pharma Inc., priority 2018, dated 2024).
Read-outs that look alike come from different tables or passages of the source. Marks after values point to notes of the source that are not given here.

Columns and labels:
[1] = Formulation development/optimization and long-term stability of nintedanib HBr and HCl formulations
[2] = Feasibility assessment of ready-to-use nintedanib HBr, HCl and esylate formulations; type: physicochemical; details: NaCl at 30 mM or higher concentrations
interleukin-1β (IL-1β) = assay: Therapeutic silica model: lung interleukin-1β; type: in vivo, C57BL/6 mice; details: silica mice
Procedure: (§1) Briefly, acclimated 20-22 g female C57BL/6 mice were administered silica on day 1 by the intratracheal route. On the tenth day, treatment was initiated with either saline or nintedanib. […] Sham and silica control groups received saline either IN or PO. Five animals were enrolled into sham groups, 10 animals enrolled into each PO dose groups, and 13 animals were enrolled into each IN dosing group. […] Body weights were collected throughout the study, with lung weights at termination. Flexivent was performed to determine elastance (lung function; Table 59). Left lungs were extracted, stained as assessed for parenchymal collagen (Table 60) and α-smooth muscle actin (αSMA; Table 61), while right lungs were assessed for interleukin-1β (IL-1β; Table 62). Alpha-smooth muscle actin (αSMA) is a marker of myofibroblast, a key cell type present in fibrotic diseases, including IPF, and is required for production and deposition of collagen.

[3] = test system: α-smooth muscle actin (αSMA); assay: Therapeutic silica model: lung α-smooth muscle actin; type: in vivo, C57BL/6 mice; details: silica mice
Procedure: as §1

parenchymal collagen = assay: Therapeutic silica model: parenchymal collagen (Picrosirius Red); type: in vivo, C57BL/6 mice; details: silica mice
Procedure: as §1, with “[…] collagen was measured by Picrosirius Red (PSR) histopathological analysis. […] Due to the positive impact on other key fibrosis modulators (αSMA, IL-1β; Tables 61 and 62) and that silica-induced fibrosis was well-established prior to start of dosing, it” for “Alpha-smooth muscle actin (αSMA)”, “possible that extending the treatment time would ultimately impact parenchymal” for “a marker of myofibroblast, a key cell type present in fibrotic diseases, including IPF, and is required for production and deposition of”

[4] = test system: bleomycin pulmonary fibrosis; assay: Therapeutic bleomycin pulmonary fibrosis model: Ashcroft fibrosis score, hydroxyproline; type: in vivo, Sprague Dawley rats
Procedure: Briefly, acclimated Sprague Dawley male rats (c.a. 253 grams at first dosing) were administered bleomycin on days 1, 2, 3 and 6 by the oropharyngeal (OP) route. On the eighth day, treatment was initiated with either saline or nintedanib. […] Ten animals were enrolled into each dosing group. […] All animals were euthanized on day 28d. Body weights were collected throughout the study, with lung weights at termination (Table 55). Left lungs were extracted and measured for hydroxyproline content, while […] were subjected to histology for Ashcroft fibrosis score determination (Table 56).

[5] = Dynamic Vapour Sorption (DVS) hygroscopicity; type: physicochemical; details: for DVS mass uptake at 90% RH: 25° C., uptake from input material; for Hygroscopicity: DVS
Procedure: Dynamic Vapour Sorption (DVS). Approximately, 10 mg of sample was placed into a mesh vapour sorption balance pan and loaded into a DVS-1 or DVS Advantage dynamic vapour sorption balance by Surface Measurement Systems. The sample was subjected to a ramping profile from 40-90% relative humidity (RH) at 10% increments, maintaining the sample at each step until a stable weight had been achieved (dm/dt 0.004%, minimum step length 30 minutes, maximum step length 500 minutes) at 25° C. After completion of the sorption cycle, the sample was dried using the same procedure to 0% RH and then a second sorption cycle back to 40% RH. Two cycles were performed. The weight change during the sorption/desorption cycles were plotted, allowing for the hygroscopic nature of the sample to be determined. XRPD analysis was then carried out on any solid retained.

[6] = test system: silica pulmonary fibrosis; assay: Therapeutic silica pulmonary fibrosis model: lung function (elastance, Flexivent); type: in vivo, C57BL/6 mice; details: silica mice
Procedure: Sham and silica control groups received saline either IN or PO. Five animals were enrolled into sham groups, 10 animals enrolled into each PO dose groups, and 13 animals were enrolled into each IN dosing group. […] Body weights were collected throughout the study, with lung weights at termination. Flexivent was performed to determine elastance (lung function; Table 59). […] The ventilator determined the elastance of each lung as a measure of lung stiffness/fibrosis by inflating the lungs and assessing changes in flow and pressure.

[7] = Therapeutic bleomycin model: body weight gain, lung weight-to-body weight ratio, tolerability; details: bleomycin rats
[8] = Inhaled pharmacokinetics of nintedanib salt forms (intratracheal); type: in vivo, C57BL/6 mice; details: 1 mg/kg (base equivalent) IT, mice; listed as nintedanib hydrobromide
[9] = Plasma and lung pharmacokinetics of nintedanib esylate, oral vs intratracheal aerosol; type: in vivo, C57BL/6 mice; details: for Lung Cmax / plasma AUC as fraction of the 100 mg/kg oral dose: mice
[10] = Therapeutic silica model: body and lung weights; type: in vivo, C57BL/6 mice; details: oral 30 mg/kg BID and inhaled (IN) 0.021-[…] QD nintedanib HBr
Procedure: as §1, with “As expected, all mice administered silica lost weight from days 0 to 4. All silica administered mice began to recover from weight loss at around day 6” for “Alpha-smooth muscle actin (αSMA) is a marker of myofibroblast, a key cell type present in fibrotic diseases, including IPF,”, “continued recovery reaching their initial weight by day 10 (first therapeutic intervention). […] Neither oral or inhaled (IN) treatment or vehicles altered these characteristics.” for “is required for production and deposition of collagen.”

[11] = Allometric dose scaling from mouse and rat to human; details: for Predicted human half-life: Oral
[12] = Oral Gavage (PO) 30 mg/kg BID, lung
[13] = OP 0.05 mg/kg QD, bleomycin rats
[14] = OP 0.25 mg/kg QD, bleomycin rats
[15] = OP 0.375 mg/kg QD, bleomycin rats
[16] = oral nintedanib HBr 30 mg/kg BID

With `COC(=O)c1ccc2c(c1)NC(=O)/C2=C(\Nc1ccc(N(C)C(=O)CN2CCN(C)CC2)cc1)c1ccccc1` [Nintedanib HBr] the “compatibility with citric acid, fumaric acid” value [1] was “incompatible”, the “upper concentration limit (no re-crystallization)” value [1] was 1.38 mg/mL and the “compatibility with NaCl” value [2] was “Neither Nintedanib HBr nor Nintedanib HCl is compatible”. The “IL-1β, Delta to Vehicle (%)” value (interleukin-1β (IL-1β); Oral Gavage (PO) 30 mg/kg BID) was −1.5%, the IL-1β (interleukin-1β (IL-1β); [12]) was 1001.0 pg/mL and the “αSMA (%)” value [3, 12] was 22.8%. For the same compound, the “αSMA, Delta to Vehicle (%)” value ([3]; Oral Gavage (PO) 30 mg/kg BID, p < 0.005) was −47.7^b %, the “Parenchymal Collagen, Delta to Vehicle (%)” value (parenchymal collagen; Oral Gavage (PO) 30 mg/kg BID) was 15.6% and the “Parenchymal Collagen” value (parenchymal collagen; Oral Gavage (PO) 30 mg/kg BID, Picrosirius Red) was 0.74. For the same compound, the “Fibrosis Score (SD) (Ashcroft)” value [4, 13] was 2.7 (0.94), the “Fibrosis Score, Delta to Vehicle (%)” value [4, 13] was −12.5% and the “Fibrosis Score (SD) (Ashcroft)” value [4, 14] was 2.1 (0.97). The “Fibrosis Score, Delta to Vehicle (%)” value [4, 14] was 12.5%, the “Fibrosis Score (SD) (Ashcroft)” value [4, 15] was 1.9 (0.48) and the “Fibrosis Score, Delta to Vehicle (%)” value [4, 15] was 20.8%. For the same compound, the “DVS mass uptake at 90% RH” value ([5]; listed as HBr salt) was “ca. 4.5%”, the Hygroscopicity ([5]; listed as HBr) was “Hygroscopic” and the “Post-DVS XRPD pattern” value ([5]; listed as HBr salt) was “remain unchanged”. The “Elastance, Delta to Vehicle (%)” value ([6]; Oral Gavage (PO) 30 mg/kg BID) was −122.2%, the “Elastance, Sham Subtracted” value ([6]; Oral Gavage (PO) 30 mg/kg BID) was −0.2 and the “Body Weight Gain, Delta to Sham (%)” value ([7]; OP 0.05 mg/kg QD) was −18.4%. The “Body Weight Gain, Delta to Sham (%)” value ([7]; OP 0.25 mg/kg QD) was −26.7%, the “Body Weight Gain, Delta to Sham (%)” value ([7]; OP 0.375 mg/kg QD) was −4.8% and the lung half-life [8] was “about 4 minutes”.

With `COC(=O)c1ccc2c(c1)NC(=O)/C2=C(\Nc1ccc(N(C)C(=O)CN2CCN(C)CC2)cc1)c1ccccc1` [Nintedanib, methyl (3Z)-3-[[4-[methyl-[2-(4-methylpiperazin-1-yl)acetyl]amino]anilino]-phenylmethylidene]-2-oxo-1H-indole-6-carboxylate] the “less IT nintedanib to achieve the same lung Cmax as oral delivery” value ([9]; 0.5 mg/kg IT compared to 100 mg/kg oral) was “about 200 fold”, the “Lung Cmax” value ([9]; 2.5 mg/kg IT) was 57.5 mcg/gram and the “plasma AUC as fraction of the 100 mg/kg oral dose” value ([9]; 2.5 mg/kg inhaled (IT)) was “about 1/9”. The “plasma AUC as fraction of the 100 mg/kg oral dose” value ([9]; 10 mg/kg inhaled (IT)) was “⅓”, the “Lung Cmax” value ([9]; 100 mg/kg oral) was 12.1 mcg/gram and the “lung IL-1β” value (interleukin-1β (IL-1β); Inhaled (IN) nintedanib HBr dose groups) was “dose responsive reduction, with the high dose achieving significance”. The “lung IL-1β” value (interleukin-1β (IL-1β); [16]) was “did not reduce IL-1β levels”, the “lung weights compared to control mice” value [10] was “Neither oral nor inhaled (IN) nintedanib significantly affected lung weights” and the “lung αSMA levels” value ([3]; oral and inhaled (IN) nintedanib HBr) was “both oral and inhaled routes have a substantial impact reducing αSMA lung levels, with the inhaled low and oral doses showing significance”. For the same compound, the Predicted human half-life ([11]; line of Mouse Oral 30.0 mg/kg) was 13.6 h, the Predicted human half-life ([11]; line of Rat Oral 60.0 mg/kg) was 13.6 h and the “Predicted human ELF half-life (alpha)” value ([11]; from Mouse Inhaled […], 21-fold longer than animal lung half-life) was 84^c min. The “Predicted human ELF half-life (alpha)” value ([11]; from Mouse Inhaled […], ELF half-life 21-fold longer than animal lung half-life) was 84^c min, the “Predicted human ELF half-life (alpha)” value ([11]; from Rat Inhaled 0.05 mg/kg, 21-fold longer than animal lung half-life) was 294^c min and the “Predicted human ELF half-life (alpha)” value ([11]; from Rat Inhaled 0.25 mg/kg, 21-fold longer than animal lung half-life) was 294^c min. The “Predicted human ELF half-life (alpha)” value ([11]; from Rat Inhaled 0.375 mg/kg, 21-fold longer than animal lung half-life) was 294^c min, the “parenchymal collagen (PSR)” value (parenchymal collagen; inhalation (IN) or oral nintedanib HBr) was “not reversed by either inhalation or oral nintedanib treatment” and the “lung fibrosis score (Ashcroft)” value ([4]; Inhaled (OP) nintedanib HBr dose groups, bleomycin rats) was “dose responsive reduction in fibrosis score”. For the same compound, the “anti-fibrotic activity compared with oral 60 mg/kg BID” value ([4]; inhaled high dose (0.375 mg/kg OP QD)) was “more anti-fibrotic activity as oral”, the “anti-fibrotic activity compared with oral 60 mg/kg BID” value ([4]; inhaled low dose (0.05 mg/kg OP QD)) was “less anti-fibrotic activity than oral” and the “anti-fibrotic activity compared with oral 60 mg/kg BID” value ([4]; inhaled mid-dose (0.25 mg/kg OP QD)) was “equivalent amount of anti-fibrotic activity as oral”. For the same compound, the “Post-DVS XRPD pattern” value [5] was “remain Pattern 1”, the “DVS mass uptake at 90% RH” value [5] was “ca. 1.7%” and the Hygroscopicity [5] was “slightly hygroscopic”. For the same compound, the “lung function (elastance)” value [6, 16] was “Oral was also significant in improving lung function”, the body weight gain ([7]; High dose OP (0.375 mg/kg nintedanib HBr QD)) was “weight gain equivalent to sham animals” and the body weight gain ([7]; Oral (PO) 60 mg/kg nintedanib esylate BID) was “gained about half the weight of control animals”.
